Patent US20120094939A1, “ANTI-VIRAL COMPOUNDS, COMPOSITIONS AND METHODS” (priority 2007, published 2012)

Legend:
[1] = test system: Huh7/Rep-Feo HCV replicon (HCV RNA replication); format: cell-based, Hepatitis C virus (strain HCV—N, genotype 1b); conditions: approximately 10-50 μM, most at 33 μM; for R-CompZ, compositeZ score for reporter gene assay: Table 2 antiviral hits of DOS set, 48 hours
[2] = test system: OR6 cells; assay: Secondary assay cell viability (CellTiter-Glo); conditions: 48 hours
Procedure: Secondary Assays-Hit Validation. Several hits from primary HTS, as well as functionally related compounds, were purchased from Sigma (St. Louis, Mo.), Calbiochem (San Diego, Calif.), and Microsource (Gaylordsville, Conn.). […] Ten mM of stock solutions of the individual compounds to be tested was prepared in the appropriate solvent (DMSO, ethanol, or H2O, according to the manufacturer's information) and stored at −20° C. Cells were seeded into 96-well plates at a density of 2000 cells/well in 100 μL of medium. The cells were incubated for 24 hours at 37° C. to obtain the optimal level of adherence. Solutions of candidate hit compounds were added to wells to achieve final concentrations of 0.1, 1, 10, 50, and 100 μM. The final concentration of DMSO or ethanol in every well was 1% or less by volume. Mock solutions were used as a negative control. PEG-IFN and ribavirin were used as positive controls at various concentrations, alone and in combination. The plates were then incubated at 37° C. with 5% CO2 for 48 hours before they were analyzed. Luminescent signal was generated using the Renilla luciferase assay kit (Promega) according to the manufacturer's instructions. Signal was then detected using a LumiCount (Packard BioScience Company) luminometer. Cell viability was assessed using CellTiter-Glo (Promega), following the manufacturer's instructions. All experiments were performed in triplicate.
Secondary Assays-Data Analysis. Values were presented as a percentage of mock treated control, which was arbitrarily set at 100%. Data were expressed as the mean (±) SD. […] Synergy calculations were performed using CalcuSyn (Biosoft; Cambridge, England).
Secondary Assays—Hit Validation: 10 mM of stock solutions of the individual compounds to be tested were prepared in DMSO and stored at −20° C. Cells were seeded into 96-well plates at a density of 2,000 cells/well in 100 μl of medium. The cells were incubated for 24 hours at 37° C. to obtain the optimal level of adherence. Solutions of candidate hit compounds were added to wells to achieve varying final concentrations between 0.01 and 100 μM. The final concentration of DMSO or ethanol in every well was 1% or less by volume. Mock solutions were used as a negative control. Peginterferon-alfa-2b (PEG-Intron; Schering Corp.; Kenilworth, N.J.) and ribavirin (Sigma; St. Louis, Mo.) were used as positive controls at various concentrations, alone and in combination. The plates were then incubated at 37° C. with 5% CO2 for 48 hours before they were analyzed. Luminescent signal was generated using the Renilla luciferase assay kit (Promega; Madison, Wis.) according to the manufacturer's instructions. Signal was then detected using a LumiCount™ (Packard BioScience Company; Downers Grove, Ill.) luminometer. Cell viability was assessed using CellTiter-Glo (Promega; Madison, Wis.), following the manufacturer's instructions. All experiments were performed in triplicate. Values were presented as a percentage of mock treated control, which was arbitrarily set at 100%. Data were expressed as the mean±SD.
Secondary Assays—Data Analysis: Values were presented as a percentage of mock treated control, which was arbitrarily set at 100%. Data were expressed as the mean±SD.

SMILES: Cc1cc(C)c(-c2cc([C@H](C)O/N=C3/[C@H]4CCn5c(=O)n(-c6ccccc6)c(=O)n5[C@H]4[C@H](O)[C@@H]4O[C@H]34)on2)c(C)c1 [BUCMLD-B10A11]
- R-CompZ, compositeZ score for reporter gene assay [1]: −4.7324
- concentrations with no significant/observed cytotoxicity [2]: ≤ 10 µM

SMILES: Cc1cc2c(nc1C)CCCN2CC(C)O/N=C1/[C@H]2CCn3c(=O)n(-c4ccccc4)c(=O)n3[C@H]2[C@H](O)[C@@H]2O[C@H]12 (some centres unmarked) [BUCMLD-B10A5]
- R-CompZ, compositeZ score for reporter gene assay [1]: −3.0849
- concentrations at which cytotoxic effects were exhibited [2]: ≥ 30 µM

SMILES: O=C1C2(CO)C=C(Br)C(CC2c2ccccc2)[C@@]12CO2 (some centres unmarked) [SM_A6B5_2P100]
- R-CompZ, compositeZ score for reporter gene assay [1]: −3.1341
- concentrations with no significant/observed cytotoxicity [2]: ≤ 30 µM

SMILES: CC(=O)OC[C@H]1O[C@H](CCO/N=C2/[C@H]3CCn4c(=O)n(-c5ccccc5)c(=O)n4[C@H]3[C@H](O)[C@@H]3O[C@H]23)C=C[C@@H]1OC(C)=O [BUCMLD-B10A3]
- R-CompZ, compositeZ score for reporter gene assay [1]: −4.6336
- concentrations at which cytotoxic effects were exhibited [2]: above 7 μM

SMILES: O=C1C2C=C(I)C(CC2OCCCCO)[C@@]12CO2 (some centres unmarked) [SM_A5B3_2P141]
- R-CompZ, compositeZ score for reporter gene assay [1]: −2.5923

SMILES: COc1cc2c(cc1OC)-c1c/c(=N\c3c(C)cc(C)cc3C)n(C)c(=O)n1CC2 [trequinsin, reference compound]
- primary screen hit result (in words) ([1]; known bioactives library): not identified as a hit
- cytotoxicity (in words) [2]: significant cytotoxicity only at the higher concentrations of 50 and 100 μM
